Ends that are not written are not given here.
Key:
[1] = system: Listeria monocytogenes Scott A; test: Disk inhibition of growth on BHI agar overlay plates; assay type: cell-based; conditions: 10 μl on disks, overnight 37° C.; nisin below 50 IU/ml; lysozyme up to and including 125 μg/ml; blend 50 IU/ml nisin and 50 μg/ml lysozyme
Experimental: A culture of Listeria monocytogenes Scott A was grown overnight in Brain Heart Infusion broth (BHI, Difco Laboratories, Inc.). Overlay plates were prepared using 25 ml of BHI agar overlayed with 4 ml BHI agar containing 10 μl of the overnight culture. Sterile antibiotic sensitivity disks were blotted with 10 μl of nisin, lysozyme or nisin/lysozyme blends at various concentrations; placed on the surface of the overlay plates and incubated overnight at 37° C.

[2] = system: Listeria monocytogenes, Scott A; test: Lysis of washed cells at various pH levels (loss of absorbance at 540 nm); assay type: cell-based; conditions: 100 IU/ml nisin alone or 10 μg/ml lysozyme alone; 37°
Experimental: A culture of Listeria monocytogenes, Scott A, was grown overnight in BHI broth and harvested by centrifugation. The harvested cells were washed with 0.067M Potassium phosphate buffer (pH 6.6) and resuspended in 0.067M potassium phosphate buffer at various pH levels to a final absorbance of about 1.0 at 540 nm as determined in a Bausch & Lomb spectronic 20. Lysis of the bacteria is accompanied by a loss in absorbance at 540 nm. Nisin and lysozyme were added to these solutions to final concentrations of 100 IU/ml nisin and 10 μg/ml lysozyme and the solutions were placed in a 37° water bath whereupon the change in adsorption at 540 nm was monitored.

L. monocytogenes = test: Growth of L. monocytogenes in inoculated raw pork sausage (surface response model); assay type: cell-based, Listeria monocytogenes; conditions: alone, 0-500 IU/gm nisin or 0-500 ppm lysozyme; 3 days at 5° C.
Experimental: L. monocytogenes can grow at 5° C. and poses a threat to some processed meats. Its control can include reduction in the rate of growth, bacteriostatic effects, and most desirably, bacteriocidal effects.
Raw sausage was inoculated with L. monocytogenes from a BHI overnight culture; various amounts of nisin and/or lysozyme were incorporated into the sausage. The treated sausage was held for either 3 or 21 days at 5° C. whereupon viable L. monocytogenes were enumerated. A surface response model was constructed over a range of 0-500 IU/gm nisin and 0-500 ppm lysozyme. The surface response model from the 3 day data are set out in the following FIG. 3. […] Similar synergies are seen at other levels of nisin and lysozyme.

Staphlococcus aureus = test: Minimal inhibitory concentration in BHI broth; assay type: cell-based; conditions: lysozyme alone, 37° C.
Experimental: The synergy of nisin and lysozyme is not limited to the control of L. monocytogenes. The minimal inhibitory concentration (MIC) of nisin was lowered by the addition of lysozyme for the control of other gram positive bacteria. For example, a culture of Staphlococcus aureus was grown overnight in BHI broth and subsequently diluted into fresh BHI broth with various concentrations of nisin, lysozyme or a combination of nisin and lysozyme. […] Accordingly, one can use less nisin to provide an equivalent level of control by the addition of a synergistic amount of lysozyme.

L. monocytogenes Scott A = test: Survival of cells in citric acid buffer with subtilin and/or lysozyme; assay type: cell-based, Listeria monocytogenes; conditions: for Surviving Cells After 1 Hour at 25° C.: 10 mM citric acid buffer pH 5.5, untreated 7.5; for Surviving Cells After 1 Hour at 25° C. / log10 reduction: subtilin 100 μ/ml and/or lysozyme 500 ppm; for log10 reduction / effect on the L. monocytogenes cells: 1 hour at 25° C., pH 5.5; for effect on the L. monocytogenes cells: alone, subtilin 100 μ/ml or lysozyme 500 ppm
Experimental: A culture of L. monocytogenes Scott A was grown overnight in BHI broth and diluted 1:100 in 10 mM citric acid buffer (pH 5.5). This preparation, 100 μl, was added to 900 μl of citric acid buffer containing subtilin, lysozyme or both. The subtilin used in this experiment was prepared by the pure culture fermentation of Bacillus subtillus ATCC 6633 as described by Banerjee and Hansen in J. Biol. Chem. 1988 263 (19): 9508-9514.

[3] = system: S. typhimurium (ATCC 14028); test: Survival of cells in citric acid buffer with nisin and/or lysozyme; assay type: cell-based, Salmonella typhimurium
Experimental: A culture of S. typhimurium (ATCC 14028) was grown overnight on nutrient broth, diluted in 10 mM citric acid buffer (pH 3.5) and added to citric acid buffer containing nisin, lysozyme or a combination thereof.

Row | Substance | inhibition of bacterial growth (zone of inhibition around disks) [1] | pH of maximum lysis [2] | control of L. monocytogenes in raw sausage (L. monocytogenes) | effect on subsequent growth of the bacteria (Staphlococcus aureus) | Surviving Cells After 1 Hour at 25° C. (L. monocytogenes Scott A) | log10 reduction (L. monocytogenes Scott A) [log10] | effect on the L. monocytogenes cells (L. monocytogenes Scott A) | Surviving Cells After 1 Hour at 37° C. ([3]; 10 mM citric acid buffer pH 3.5, nisin 1000 IU/ml and/or lysozyme 500 μg/ml, untreated 7.18) | log10 reduction ([3]; 1 hour at 37° C., pH 3.5, nisin 1000 IU/ml and/or lysozyme 500 μg/ml) [log10] | effect against S. typhimurium ([3]; lysozyme 500 μg/ml alone, 1 hour at 37° C., pH 3.5)
1 | lysozyme | nor was inhibition observed | 6.0-6.5 pH | ineffective | did not affect | 7.4 log10 colony forming units/ml | 0.1 | little effect | 7.08 log10 colony forming units/ml | 0.10 | ineffective
2 | subtilin (WKSESLCTPGCVTGALQTCFLQTLTCNCKISK; cysteine pairing not given here; also: lantibiotic thioether and dehydro residues, places not given here; UniProt P10946 25-56, looked up) [lantibiotic prepared by pure culture fermentation of Bacillus subtillus ATCC 6633, reference compound] |  |  |  |  | 7.2 log10 colony forming units/ml | 0.3 | little effect |  |  | 

— patent US5458876A, “Control of microbial growth with lantibiotic/lysozyme formulations” (priority 1990, dated 1995)
